{
  "source": "patent US6060304A",
  "about": "“Method of producing conjugated fatty acids” (Wisconsin Alumni Research Foundation, priority 1998, dated 2000)",
  "key": {"[1]": {"tested_on": "carcinogen-induced rat mammary tumors", "conditions": "cited from earlier work"}, "[2]": {"tested_on": "epidermal carcinogenesis and forestomach neoplasia", "conditions": "mice; cited from earlier work"}, "atherosclerosis": {"tested_on": "atherosclerosis", "conditions": "rabbits and hamsters; cited from earlier work"}, "[3]": {"conditions": "rabbits fed an atherogenic diet; cited from earlier work"}, "[4]": {"conditions": "chicks, mice and rats; cited from earlier work"}, "[5]": {"conditions": "mouse, rat and chick models; cited from earlier work"}, "[6]": {"tested_on": "linoleate isomerase of L. reuteri PYR8", "assay": "Substrates tested with cells of L. reuteri PYR8, product analysed by GC", "type": "biochemical, Lactobacillus reuteri PYR8 (ATCC 55739)", "conditions": "for Major Products (putative) of the linoleate isomerase: 0.2 mg substrate reacted with 20 mg PYR8 cells, GC; for Activity as substrate of the Lactobacillus: unsaturated fatty acids lacking double bonds at both positions 9 and 12; for Activity of the organism / consumption relative to other substrates: effect of extra double bonds at position 6 and/or 15", "protocol": "^a Each substrate (0.2 mg) was reacted with the cells (20 mg) of L.\nreuteri PYR8, and product was analyzed by GC, as described in methods.\nFatty acids were extracted with chloroform:methanol (2:1) and 4% KCl. Hexadecanoic acid (HDA) was added as an internal standard. […] Fatty acid peaks were separated with a fused silica capillary column, 60 m by […] I.D. with a 0.25 μm film thickness (Supelco Park, Bellefonte, Pa.)."}, "[7]": {"tested_on": "linoleate isomerase of L. reuteri PYR8", "conditions": "for Rate of converting: 36-hour PYR8 cells", "protocol": "Fatty acids were extracted with chloroform:methanol (2:1) and 4% KCl. Hexadecanoic acid (HDA) was added as an internal standard. The extraction mix was centrifuged at 2000 g for 5 minutes, then the chloroform fraction containing the fatty acids (bottom fraction) was removed and dried down by nitrogen gas. The fatty acids were suspended in 4% HCl in anhydrous methanol, and were methylated in a 60° C. water bath for 20 minutes. Finally, drops of double distilled water (DDW) were added to the methylation tube and hexane was used to re-extract the fatty acid. After washing twice with DDW and dehydrating by sodium sulfate, 1-2 μl of the hexane fraction was injected into a model 5890 series II gas chromatograph fitted with a model 3396A integrator (Hewlett-Packard Company, Avondale, Pa.) for fatty acid analysis. Fatty acid peaks were separated with a fused silica capillary column, 60 m by […] I.D. with a 0.25 μm film thickness (Supelco Park, Bellefonte, Pa.).\nThirty-six-hour cultures were diluted in 0.1M Tris-HCl (pH 8.55) buffer to 1:10, 1:15, 1:20 (w/v). Five ml of each suspension were reacted with 2.0 mg of linoleic acid for 1, 2, or 3 hours at 12° C. At 1:15, five ml were incubated with 1.0 mg, 1.5 mg, 2.0 mg and 3.0 mg of alpha-linolenic acid for 1 hour, or with 2.0 mg of gamma-linolenic acid for 1, 2, 3, 4, or 24 hours at 4° C. Fatty acids were extracted with chloroform:methanol and assayed by the GC method."}, "mammary cancer": {"tested_on": "mammary cancer", "conditions": "rodents; cited from earlier work"}},
  "data": [
    {"compound": "Conjugated linoleic acid [CLA]", "values": [
      {"measurement": "Inhibition of carcinogen-induced mammary tumors", "setting": "[1]", "value": "effective inhibitor"},
      {"measurement": "Inhibition of epidermal carcinogenesis and forestomach neoplasia", "setting": "[2]", "value": "effective inhibitor"},
      {"measurement": "Inhibition of atherosclerosis", "setting": "atherosclerosis", "value": "inhibits atherosclerosis"},
      {"measurement": "Ratio of LDL-cholesterol to HDL-cholesterol", "setting": "[3]", "value": "can decrease"},
      {"measurement": "Prevention of adverse effects caused by immune stimulation", "setting": "[4]", "value": "can prevent adverse effects"},
      {"measurement": "Body fat", "setting": "[5]", "value": "reduces body fat"}
    ]},
    {"compound": "Octadecanoic acid", "values": [
      {"measurement": "Major Products (putative) of the linoleate isomerase", "setting": "[6]", "value": "None"},
      {"measurement": "Activity as substrate of the Lactobacillus", "setting": "[6]", "value": "Inactive"}
    ]},
    {"compound": "CCCCCCCC/C=C\\CCCCCCCC(=O)O", "note": "[Oleic acid]", "values": [
      {"measurement": "Major Products (putative) of the linoleate isomerase", "setting": "[6]", "value": "None"},
      {"measurement": "Activity as substrate of the Lactobacillus", "setting": "[6]", "value": "Inactive"}
    ]},
    {"compound": "CCCCC/C=C\\C/C=C\\C/C=C\\CCCCC(=O)O", "note": "[Gamma-linolenic acid]", "values": [
      {"measurement": "Major Products (putative) of the linoleate isomerase", "setting": "[6]", "value": "cis6, cis9, trans11"},
      {"measurement": "Activity of the organism / consumption relative to other substrates", "setting": "[6]", "value": "reduced"},
      {"measurement": "Rate of converting", "setting": "[7]", "value": "less than 0.25 mg/hour/gram cells"},
      {"measurement": "Conversion to cis-6, cis-9, trans-11 isomer in 24 hours", "setting": "[7]; dilution 1:15, 2.0 mg substrate, 4° C.", "value": "unable to convert"}
    ]},
    {"compound": "CC/C=C\\C/C=C\\C/C=C\\CCCCCCCC(=O)O", "note": "[Alpha-linolenic acid]", "values": [
      {"measurement": "Major Products (putative) of the linoleate isomerase", "setting": "[6]", "value": "cis9, trans11, cis15"},
      {"measurement": "Activity of the organism / consumption relative to other substrates", "setting": "[6]", "value": "promoted"},
      {"measurement": "Rate of converting", "setting": "[7]", "value": 8.0, "unit": "mg/hour/gram cells"},
      {"measurement": "Amount of substrate converted in one hour", "setting": "[7]; dilution 1:15, five ml, 4° C.", "value": 2.5, "unit": "mg"}
    ]},
    {"compound": "CCCCC/C=C\\C/C=C\\C/C=C\\C/C=C\\CCCC(=O)O", "note": "[Arachidonic acid]", "values": [
      {"measurement": "Major Products (putative) of the linoleate isomerase", "setting": "[6]", "value": "None"},
      {"measurement": "Activity as substrate of the Lactobacillus", "setting": "[6]", "value": "Inactive"}
    ]},
    {"compound": "CCCCC/C=C\\C/C=C\\CCCCCCCC(=O)O", "note": "[Linoleic acid]", "values": [
      {"measurement": "Major Products (putative) of the linoleate isomerase", "setting": "[6]", "value": "cis9, trans11 isomer"},
      {"measurement": "Effect on mammary cancer", "setting": "mammary cancer", "value": "associated with enhancing mammary cancer"},
      {"measurement": "Rate of converting", "setting": "[7]", "value": 3.2, "unit": "mg/hour/gram cells"}
    ]}
  ]
}
